The values that follow come from patent US20100239501A1, “GENE SENSITIVE TO BONE/JOINT DISEASE AND USE THEREOF” (RIKEN, priority 2007, published 2010).

This test relates to OA patient-derived fibroblast-like synovial cells (HFLS-OA). The test is described as follows: Inflammatory cytokine and MMP gene expression induction by LPA in human OA synovial cells. In kind it is cell-based. As for the experimental part: The inflammatory cytokine expression induction reaction of LPA, which is a ligand of EDG2, in OA patient-derived fibroblast-like synovial cells was analyzed. The method used is described below. OA patient-derived fibroblast-like synovial cells (HFLS-OA) were purchased from Cell application Co. The HFLS-OA was cultured using the attached Synoviocyte growth medium. The number of passages for the cells used was 4 or 5. The HFLS-OA was seeded to a 24-well plate at a ratio of 1×10^5 cells/well, and cultured using the attached Synoviocyte growth medium until they became confluent. Twelve hours before performing LPA stimulation, the medium was replaced with Ham's F-12 (Invitrogen) medium containing 0.1% fatty acid free bovine serum albumin (Sigma). In the time-related change analysis, 12 hours after the medium replacement, the cells were stimulated with 10 μM LPA; 0, 1, 2, 4, 8, 12 and 24 hours later, total RNA was extracted using ISOGEN (Nippon Gene), and the amounts expressed of the TNFA, IL1B, and IL6 genes, which are inflammatory cytokine genes, and of the MMP1, MMP3, and MMP13 genes, which are Matrix metalloproteinase (MMP) genes, were quantified by a method in accordance with Example 10 (n=4). In the dose dependency test, 12 hours after the medium replacement, the cells were stimulated with 0, 0.1, 0.3, 1, 3 and 10 μM LPA; 2 hours later, total RNA was extracted using ISOGEN (Nippon Gene), and the amounts expressed of the TNFA, IL1B, and IL6 genes, which are inflammatory cytokine genes, were quantified in the same manner as the above for the time-related change test (n=3). As a result of the time-related change test of inflammatory cytokine genes with LPA stimulation, the amounts of TNFA, IL1B and IL6 expressed rose transiently, with peaks reached 2, 4 and 1 hour later, respectively (FIGS. 8a, b and c). The amounts expressed of the MMP1, MMP3, and MMP13 genes, which are MMP genes, rose transiently, with peaks reached 8, 8 and 4 hours later, respectively (FIGS. 8d, e and f). It is known that in synovial cells, MMP genes have the expression thereof increased by inflammatory cytokines. In this experiment, the rise in the expression of the inflammatory cytokine genes preceded the rise in the expression of the MMP genes; therefore, the rise in the expression of MMP genes with LPA stimulation may be a secondary reaction via an inflammatory cytokine. As a result of the dose dependency test, it was shown that LPA raises the expression of inflammatory cytokine genes dose-dependently (FIGS. 8g, h and i). The amounts expressed of the TNFA and IL1B genes nearly reached a plateau at 1 μM, whereas the expression of the IL6 gene rose dose-dependently up to 10 μM. […] From this finding, it is thought that the inflammatory cytokine gene group induction reaction of LPA is very highly likely to be a reaction mediated mainly by the EDG2 gene.

For `CCCCCCCC/C=C\CCCCCCCC(=O)OC[C@@H](O)COP(=O)(O)O` [LPA, 1-Oleoyl-sn-Glycero-3-Phosphate], the “rise of expression of inflammatory cytokine genes (TNFA, IL1B, IL6)” value (0, 0.1, 0.3, 1, 3 and 10 μM LPA, 2 hours, n=3) is given as “dose-dependently”. For the same compound, under “10 μM LPA, transient rise, n=4”, the “time of peak of IL1B expression” value amounted to 4 h, the “time of peak of IL6 expression” value stood at 1 h, the “time of peak of MMP1 gene expression” value was 8 h and the “time of peak of MMP3 gene expression” value stood at 8 h. Moreover, for the setting “10 μM LPA, transient rise, n=4”, the “time of peak of MMP13 gene expression” value is 4 h and the “time of peak of TNFA expression” value worked out at 2 h. In addition, under “dose dependency test, 2 hours”, the “LPA concentration at which IL1B gene expression nearly reached a plateau” value turned out to be 1 µM, the “LPA concentration at which TNFA gene expression nearly reached a plateau” value was 1 µM and the “LPA concentration up to which IL6 gene expression rose dose-dependently” value is on record as “up to 10 μM”.
